Reference: patent US20260125360A1, “HERBICIDAL IMIDAZOLE COMPOUNDS” (SYNGENTA CROP PROTECTION AG, priority 2022, published 2026)

Key:
Format in all cases: in vivo
Conditions in all cases: 250 g/ha, evaluated after 13 days
[1] = test system: Amaranthus retoflexus (AMARE); assay: Post-emergence herbicide glasshouse test
Method in brief: (§1)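 Percentage plant damage, rated on a five-point scale (5=81-100%; 1=0-20%), is assessed 13 days after treatment. Sprays are applied at 250 g/ha unless otherwise stated, one day after sowing for pre-emergence and eight days after for post-emergence, from acetone/water (50:50) containing 0.5% Tween 20.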

[2] = test system: Amaranthus palmeri (AMAPA); assay: Post-emergence herbicide glasshouse test
Method in brief: as §1

[3] = test system: Ipomoea hederacea (IPOHE); assay: Post-emergence herbicide glasshouse test
Method in brief: as §1

[4] = test system: Echinochloa crus-galli (ECHCG); assay: Post-emergence herbicide glasshouse test
Method in brief: as §1

[5] = test system: Amaranthus retoflexus (AMARE); assay: Pre-emergence herbicide glasshouse test
Method in brief: as §1

[6] = test system: Amaranthus palmeri (AMAPA); assay: Pre-emergence herbicide glasshouse test
Method in brief: as §1

[7] = test system: Ipomoea hederacea (IPOHE); assay: Pre-emergence herbicide glasshouse test
Method in brief: as §1

[8] = test system: Echinochloa crus-galli (ECHCG); assay: Pre-emergence herbicide glasshouse test
Method in brief: as §1

| Compound | percentage damage caused to the plant, AMARE (five-point scale) [1] | percentage damage caused to the plant, AMAPA (five-point scale) [2] | percentage damage caused to the plant, IPOHE (five-point scale) [3] | percentage damage caused to the plant, ECHCG (five-point scale) [4] | percentage damage caused to the plant, AMARE (five-point scale) [5] | percentage damage caused to the plant, AMAPA (five-point scale) [6] | percentage damage caused to the plant, IPOHE (five-point scale) [7] | percentage damage caused to the plant, ECHCG (five-point scale) [8] |
| --- | --- | --- | --- | --- | --- | --- | --- | --- |
| Cc1noc(Cn2cc(C(F)(F)F)nc2-c2ccc(S(C)(=O)=O)cc2)n1 [Compound 1.176] | 1 (1=0-20%) | 1 (1=0-20%) | 1 (1=0-20%) | 1 (1=0-20%) | 1 (1=0-20%) | 1 (1=0-20%) | 1 (1=0-20%) | 1 (1=0-20%) |
| Cc1cc(Cn2cc(C(F)(F)F)nc2-c2ccc(S(C)(=O)=O)cc2)no1 [Compound 1.177] | 5 (5=81-100%) | 5 (5=81-100%) | 5 (5=81-100%) | 3 (3=41-60%) | 5 (5=81-100%) | 5 (5=81-100%) | 5 (5=81-100%) | 5 (5=81-100%) |
| Cc1nnc(Cn2cc(C(F)(F)F)nc2-c2ccc([S+](C)[O-])cc2)s1 (stereo not shown) [Compound 1.178] | 1 (1=0-20%) | 1 (1=0-20%) | 1 (1=0-20%) | 1 (1=0-20%) | 3 (3=41-60%) | 3 (3=41-60%) | 4 (4=61-80%) | 1 (1=0-20%) |
| CCON=Cc1cn(Cc2cc(C)on2)c(-c2cnc(Cl)c(F)c2)n1 [Compound 1.179] | 3 (3=41-60%) | 3 (3=41-60%) | 1 (1=0-20%) | 1 (1=0-20%) | 4 (4=61-80%) | 5 (5=81-100%) | 1 (1=0-20%) | 1 (1=0-20%) |
| CON=Cc1cn(Cc2ncn(C)n2)c(-c2cnc(Cl)c(F)c2)n1 [Compound 1.180] | 1 (1=0-20%) | 2 (2=21-40%) | 4 (4=61-80%) | 1 (1=0-20%) | 5 (5=81-100%) | 4 (4=61-80%) | 5 (5=81-100%) | 1 (1=0-20%) |
| Cc1nnc(Cn2cc(C(F)(F)F)nc2-c2cnc(Cl)c(F)c2)o1 [Compound 1.181] | 4 (4=61-80%) | 4 (4=61-80%) | 1 (1=0-20%) | 1 (1=0-20%) | 5 (5=81-100%) | 5 (5=81-100%) | 4 (4=61-80%) | 3 (3=41-60%) |
| Cn1cnc(Cn2cc(C#N)nc2-c2cnc(Cl)c(F)c2)n1 [Compound 1.182] | 5 (5=81-100%) | 4 (4=61-80%) | 3 (3=41-60%) | 3 (3=41-60%) | 5 (5=81-100%) | 5 (5=81-100%) | 5 (5=81-100%) | 4 (4=61-80%) |
| Cc1nnc(Cn2cc(C(F)(F)F)nc2-c2ccc(F)c(F)c2)o1 [Compound 1.183] | 5 (5=81-100%) | 5 (5=81-100%) | 4 (4=61-80%) | 2 (2=21-40%) | 5 (5=81-100%) | 5 (5=81-100%) | 5 (5=81-100%) | 3 (3=41-60%) |
| Cn1cnc(Cn2cc(C#N)nc2-c2ccc(F)c(F)c2)n1 [Compound 1.184] | 5 (5=81-100%) | 5 (5=81-100%) | 5 (5=81-100%) | 4 (4=61-80%) | 5 (5=81-100%) | 5 (5=81-100%) | 5 (5=81-100%) | 5 (5=81-100%) |
| Cc1cc(Cn2cc(C#N)nc2-c2cnc(Cl)c(F)c2)no1 [Compound 1.185] | 4 (4=61-80%) | 4 (4=61-80%) | 3 (3=41-60%) | 1 (1=0-20%) | 5 (5=81-100%) | 5 (5=81-100%) | 4 (4=61-80%) | 3 (3=41-60%) |
| Cc1cc(Cn2cc(C(F)(F)F)nc2-c2ccc(F)c(F)c2)no1 [Compound 1.192] | 5 (5=81-100%) | 5 (5=81-100%) | 5 (5=81-100%) | 5 (5=81-100%) | 5 (5=81-100%) | 5 (5=81-100%) | 5 (5=81-100%) | 5 (5=81-100%) |
